Measurements published in patent US7098220B2, “Imidazopyridine derivatives, preparation method and pharmaceutical compositions containing same” (Les Laboratoires Servier, priority 2002, dated 2006).

Legend:
[1] = test system: AMPK; experiment: AMPK activity in a cell model: hepatocytes isolated from rats; assay type: cell-based, rat; details: 500 μM, after 30 minutes, SAMS peptide phosphorylation with [γ-32P]-ATP
Experimental: AMPK Activity in a Cell Model: Hepatocytes Isolated from Rats
The hepatocytes are isolated according to the technique of Berry and Friend [J. Cell Biol, 43, 506–520 (1969)]. The AMPK activity was measured according to the method described by Davies el al. [Eur. J. Biochem., 186, 123–128 (1989)]. The latter involves phosphorylation starting from [γ-^32P]-ATP of a peptide substrate (SAMS), based on the sequence surrounding the site phosphorylated by the AMPK of the ACC. The reaction for measuring the AMPK activity ends with the deposition of an aliquot of the reaction medium on a phosphocellulose paper (Whatman P81), on which the SAMS peptide is fixed and the radioactivity of which is measured after washing.
By way of example, the compound of Example 4 activates AMPK, after 30 minutes at a concentration of 500 μM, by 312% (compared with the base value), whereas the same concentration of AICA riboside, used as reference, under the same conditions, activates it by 178%.

[2] = test system: obese ob/ob mouse; experiment: Hypolipaemic activity in the obese ob/ob mouse; assay type: in vivo
Experimental: The products of the invention were tested in vivo in the obese ob/ob mouse, used as a model of obesity-associated insulin resistance.

Compound	AMPK activation (compared with the base value) [1]	reduction of triglycerides ([2]; 125 mg/kg per os)	reduction of triglycerides ([2]; 250 mg/kg per os)
Nc1nc2cccnc2n1C1CCCCCC1 [Example 4, 3-Cycloheptyl-3H-imidazo[4,5-b]pyridine-2-amine]	312%	significantly reduces the triglycerides	
CN(C)C(=N)N=C(N)N [metformin]			the same reduction is obtained
NC(=O)c1ncn([C@@H]2O[C@H](CO)[C@@H](O)[C@H]2O)c1N [AICA riboside]	178%		
